Assay results as given in patent publication US10525133B2, “Aqueous composition comprising at least one protein and one solubilizing agent, preparation thereof and uses thereof” (ADOCIA, priority 2014, dated 2020).
Values belong to the molecule of their own block, whether it stands above or below them.

Assays:
human insulin = target: T1, human insulin (Homo sapiens, UniProt P01308); assay: Solubilization of human insulin at its isoelectric point (visual appearance, soluble fraction by RP-HPLC); format: physicochemical; design: key to Visual appearance: Cloudy: If the solution is cloudy, the compound at the concentration tested does not allow total solubilization of human insulin at its isoelectric point; Clear: If the solution is clear, the compound allows total solubilization of human insulin at the concentration tested; settings: 100 IU/ml human insulin, pH 5.3 (pI)
T1 construct: A solution of human insulin at 500 IU/ml is prepared
T1 sequence (P01308 25-54 limits assumed): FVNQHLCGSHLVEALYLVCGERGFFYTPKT
T1 sequence (P01308 90-110 limits assumed): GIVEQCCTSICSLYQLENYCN
Description: Human insulin has an isoelectric point (pI) of 5.3. […] A test of solubility at the pI of human insulin with various compounds is carried out. […] Solutions of compounds at various concentrations in water are prepared as described in examples B1 to B4. […] The pH of the various solutions is adjusted to pH 5.3 by adding hydrochloric acid or sodium hydroxide depending on the pH achieved following the mixing between the compound and the solution of human insulin. The appearance of the solution is documented. […] If the solution is clear, the compound allows total solubilization of human insulin at the concentration tested. In addition, the mixtures are centrifuged at 4000 rpm for 10 minutes in a Hereaus Biofuge Pico centrifuge (Rotor #3328) and then filtered through 0.22 μm in order to remove the precipitate. The resulting soluble fractions are then assayed by RP-HPLC (column: Sunfire C18, Waters ref:186003417; mobile phase: sodium phosphate/acetonitrile gradient; detection: UV at 276 nm) with an external insulin range in order to quantify the percentage of soluble insulin at the pI.

[1] = system: Nanogam (human immunoglobulins); assay: Reduction in aggregation of Nanogam at its isoelectric point (light scattering at 12.8°, Malvern NanoZS); format: physicochemical; settings: 40 mg/ml human immunoglobulins, pH 8.5 (pI), relative to Nanogam at pH 4.3
Description: The Nanogam formulation is a formulation of human immunoglobulins at 50 mg/ml and at pH 4.3 containing various IgG subclasses (IgG1: 54-70%, IgG2: 29-45%, IgG3: 1-4%, IgG4: 0-0.5%, IgA: at most 6 μg/ml). […] A test with various compounds is therefore carried out at the isoelectric point in order to identify the compounds which make it possible to reduce this aggregation phenomenon.
A commercial solution of Nanogam at 50 mg/ml is used. […] Mixing between the solution of Nanogam and one of the solutions of compound is carried out in order to obtain a solution containing 40 mg/ml of human immunoglobulins and the desired concentration of compound. The pH of the various solutions is adjusted to pH 8.5 by adding hydrochloric acid or sodium hydroxide depending on the pH achieved following the mixing between the compound of interest and the solution of human immunoglobulins.
The mixtures are then analyzed by light scattering on a Malvern NanoZS instrument.
The scattered intensities are measured at 12.8°.

[2] = at pH 5.3 (pI); cited from earlier work
[3] = compound 75 mmol/l, molar ratio compound/insulin 125
[4] = compound 180 mmol/l, molar ratio compound/Nanogam 675
[5] = compound 750 mmol/l, molar ratio compound/insulin 1250
[6] = compound 150 mmol/l, molar ratio compound/insulin 250
[7] = compound 300 mmol/l, molar ratio compound/insulin 500
[8] = compound 120 mmol/l, molar ratio compound/insulin 200

Molecule: N[C@@H](Cc1c[nH]cn1)C(=O)O [Histidine, L-histidine, reference compound]
- Soluble insulin recovery (%) (human insulin; [3]): 48%
- Visual appearance (human insulin; [3]): Cloudy
- Iscat 12.8° standardized ([1]; compound 40 mmol/l, molar ratio compound/Nanogam 150): 80.82

Molecule: O=C(O)Cc1ccccc1 [Phenylacetic acid]
- Iscat 12.8° standardized [1, 4]: 20.082

Molecule: CC(Oc1ccccc1)C(=O)O (stereo not drawn) [2-Phenoxypropionic acid]
- Iscat 12.8° standardized [1, 4]: 6.38

Molecule: O=C(O)C(O)c1ccccc1 (stereo not drawn) [Mandelic acid]
- Soluble insulin recovery (%) (human insulin; [5]): 100%
- Visual appearance (human insulin; [5]): Clear
- Iscat 12.8° standardized ([1]; compound 27.5 mmol/l, molar ratio compound/Nanogam 675): 22.15

Molecule: Human insulin control: Human insulin at 100 IU/ml, pH 5.3, without solubilizing compound
- Soluble insulin recovery (%) (human insulin; control without compound): 11%
- Visual appearance (human insulin; control without compound): Cloudy
- Concentration at which human insulin precipitates [2]: greater than or equal to 10 IU/ml

Molecule: O=C(CO)N[C@@H](Cc1c[nH]c2ccccc12)C(=O)O [Molecule A2, N-(2-hydroxyacetyl)-L-tryptophan]
- Soluble insulin recovery (%) (human insulin; [8]): 100%
- Visual appearance (human insulin; [8]): Clear

The remaining lines, values ahead:

- Soluble insulin recovery (%) (human insulin; [6]): 67%
- Visual appearance (human insulin; [6]): Cloudy
- Soluble insulin recovery (%) (human insulin; [7]): 35%
- Visual appearance (human insulin; [7]): Cloudy
Molecule: OC[C@H]1O[C@@](CO)(O[C@H]2O[C@H](CO)[C@@H](O)[C@H](O)[C@H]2O)[C@@H](O)[C@@H]1O [Sucrose, reference compound]

- Iscat 12.8° standardized [1, 4]: 200.18
Molecule: CC(=O)O [Acetic acid, reference compound]

- Soluble insulin recovery (%) (human insulin; [7]): 100%
- Visual appearance (human insulin; [7]): Clear
- Iscat 12.8° standardized ([1]; compound 85 mmol/l, molar ratio compound/Nanogam 320): 23.5
Molecule: O=C(CO)N[C@@H](Cc1ccccc1)C(=O)O [Molecule A1, N-(2-hydroxyacetyl)-L-phenylalanine]
